Consider 31 compounds from US8951999B2, “Compounds” (Orexo AB, priority 2009, dated 2015).

The target of the first test is T1, recombinant human mPGES-1 (Homo sapiens, UniProt O14684).
T1 sequence (O14684 1-152): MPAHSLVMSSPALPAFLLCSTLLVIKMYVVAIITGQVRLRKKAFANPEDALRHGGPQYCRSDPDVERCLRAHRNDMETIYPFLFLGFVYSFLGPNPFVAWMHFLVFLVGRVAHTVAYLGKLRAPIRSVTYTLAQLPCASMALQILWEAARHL
As to the kind of experiment: Assay A: mPGES-1 enzyme assay (HTRF detection of PGE2). The format is biochemical. As to conditions: biological assay A (compounds 1-41, 54, 55, 62, 73); PGE2 formation from PGH2, HTRF; read-out: mPGES-1 inhibitory effect IC50. From the text: Assay A: mPGES-1 Enzyme Assay
The basis of the assay used is to measure the inhibition of microsomal prostaglandin E2 synthase-1 (mPGES-1) dependent prostaglandin (PG) E2 formation from PGH2 by different compounds. Thus, the formation of PGE2 is used as signal and a lowering of this signal can be interpreted as inhibition of mPGES-1. Similar assays to measure inhibition of mPGES-1 have previously been described in the literature.
• Glutathione (Sigma, G-4251) • Freeze culture in Rosetta E coli expression strain. • LB growth media with Ampillicillin (Amp) final concentration in culture 50 μg/mL • Chloroamphenicol stock 34 mg/mL (chloro) final concentration in culture 34 μg/mL • Sterile growth flasks for 500 mL-1 liter cultures • 0.1 M KPi buffer pH 7.4 • 9.25% HCl • PGH2 (0.25 mM) • Fe (II) Cl2 tetrahydrate, 99% (Sigma, 220229) • 384-well plate with compounds • 96-well plate, polypropylene (Thermo fast 96 skirted VWR) • 384-well plate polypropylene PCR plate (Greiner 785201) • Greiner 384-well plate pp (In vitro cat. no. 781280) • Adhesive sealing film for 96-well plates (Sigma-Aldrich) • Aluminium foil (PCR foil, 310-0030-127-471 from Labora) • PBS (GIBCO 14040) • Prostaglandin E2 Assay (Cisbio, cat. no. 62P2APEC) • Biomek FX robot (Beckman Coulter) • Biomek NX robot (Beckman Coulter) • Multidrop; micro or combi (ThermoLabsystems) • Plate reader: Safire2 (Tecan)
Microsomes from Rosetta E. coli bacteria expressing recombinant human mPGES-1 can be derived as described below:
Inoculate 5 mL LB with Amp and Chloro with bacteria from freeze culture. Incubate over night at 37° C. with 200 rpm. Thereafter, inoculate 500-800 mL LB containing Amp and Chloro with the 5 mL on culture and grow to OD640 of 0.6-0.8. Chill the culture to +4° C. before induction. Induce the culture with IPTG at a final concentration of 400 μM. Express the protein at room temp 18-23° C. with 200 rpm shaking over night.
The following steps can be performed on the following day: • 1. Spin down the cells in 250 mL centrifuge flasks for 15 min at 7000 rpm • 2. Dissolve the pellet from 250 mL culture in 12.5 mL homogenization buffer • 3. Disintegrate the cells by sonication, 4×10 seconds at 35% amplitude • 4. Add 2.5 mL MgCl2 (100 mM) and DNase 12.5 μL (0.8 mg/mL) and incubate on ice for 30 min • 5. Spin down the bacteria debris and save the supernatant, 7000 rpm for 15 min • 6. Isolate the protein containing membranes in the supernatant by ultracentrifugation 45000×g for 1 hour. • 7. Discard the supernatant and dissolve the pellet in 20 mM KPi buffer and aliquot the enzyme and store aliquots at −80° C.
Before each experiment is performed an aliquot of the enzyme is thawed and it can then be dissolved in 0.1 M KPi pH 7.4 buffer containing 2.5 mM GSH. 50 μL of this enzyme solution is subsequently dispensed in a 384-well plate at room temperature. 0.5 μL of the inhibitor dissolved in DMSO is thereafter added to each well and incubated for 25 minutes at room temperature. Subsequently, 2 μL of PGH2 dissolved in an appropriate solvent is added to each well and after one minute at room temperature, the acidified stop solution containing FeCl2 is added. 4 μL of the total volume is transferred to a separate plate and diluted 750-fold in two separate steps before quantification of PGE2.
In order to quantitate the amount of PGE2 that has been formed, a homogenous time resolved fluorescent (HTRF) detection of PGE2 can be performed by the use of a commercially available kit from CisBio essentially according to the manufacturer's protocol. […]
As usually defined, the IC50 is the midpoint of a concentration-inhibition curve. With `CC(C)(C)C(=O)NCc1ccc(Cl)c(C(=O)Nc2ccc(OCC(F)F)c(C(=O)NCC3CC3)c2)c1` [Example 13], the IC50 was found to be 13 nM.

`CC(C)(C)C(=O)NCc1ccc(Cl)c(C(=O)Nc2ccc(OCC(F)(F)F)c(C(=O)N[C@H]3CC[C@H](C(F)(F)F)CC3)c2)c1` [Example 11]: the IC50 stood at 4 nM.

Consider `O=C(Nc1ccc(Cl)c(C(=O)NC2CC2)c1)c1cc(CNC(=O)C2CC2)ccc1Cl` [Example 21], for which the half-maximal inhibitory concentration (IC50) is roughly 1800 nM.

As to `CC(C)(C)C(=O)NCc1ccc(Cl)c(C(=O)Nc2ccc(OCC3CC3)c(C(=O)N[C@H]3CC[C@H](C(F)(F)F)CC3)c2)c1` [Example 38, N-[4-(Cyclopropylmethyloxy)-3-[trans-(4-trifluoromethyl-cyclohexyl)amino]carbonyl-phenyl]-2-chloro-5-(tert-butylcarbonylamino)methyl-benzamide], the half-inhibitory concentration (IC50) came to 4 nM.

Turning to `CC(C)(C)C(=O)NCc1ccc(Cl)c(C(=O)Nc2ccc(OCC(F)F)c(C(=O)Nc3ccc(Br)cc3)c2)c1` [Example 15], the half-inhibitory concentration (IC50) came out at 2 nM.

Take `Cc1ccc(NC(=O)c2cc(CNC(=O)C(C)(C)C)ccc2Cl)cc1C(=O)Nc1ccc(Br)cc1` [Example 55, N-[4-Methyl-3-(4-bromophenyl)aminocarbonyl-phenyl]-2-chloro-5-(tert-butylcarbonylamino)methyl-benzamide]: the half-inhibitory concentration (IC50) is 59 nM.

As for `COc1ccc(NC(=O)c2cc(CNS(=O)(=O)C3CC3)ccc2Cl)cc1C(=O)Nc1ccc(Br)cc1` [Example 36, N-[4-Methoxy-3-(4-bromophenyl)aminocarbonyl-phenyl]-2-chloro-5-cyclopropylsulphonylaminomethyl-benzamide], the IC50 was found to be 6 nM.

Turning to `COc1ccc(NC(=O)c2cc(CNC(=O)c3cccnc3Cl)ccc2Cl)cc1C(=O)Nc1ccc(Br)cc1` [Example 24], the IC50 is 2 nM.

With `CC(C)(C)C(=O)NCc1ccc(Cl)c(C(=O)Nc2ccc(OCC(F)F)c(C(=O)N[C@H]3CC[C@H](C(F)(F)F)CC3)c2)c1` [Example 5, N-[4-(2,2-Difluoroethyl)oxy-3-[trans-(4-trifluoromethyl-cyclohexyl)amino]carbonyl-phenyl]-2-chloro-5-(tert-butylcarbonylamino)methyl-benzamide], the half-maximal inhibitory concentration (IC50) was 2 nM.

For `CC(C)(C)C(=O)NCc1ccc(Cl)c(C(=O)Nc2ccc(OCC(F)F)c(C(=O)Nc3ccc(F)c(Cl)c3)c2)c1` [Example 7, N-[4-(2,2-Difluoroethyl)oxy-3-(4-fluoro-3-chloro-phenyl)aminocarbonyl-phenyl]-2-chloro-5-(tert-butylcarbonylamino)methyl-benzamide], the IC50 turned out to be 4 nM.

`CC(C)(C)C(=O)NCc1ccc(Cl)c(C(=O)Nc2ccc(Cl)c(C(=O)Nc3ccc(Br)cc3)c2)c1` [Example 3, N-[4-Chloro-3-(4-bromophenyl)aminocarbonyl-phenyl]-2-chloro-5-(tert-butylcarbonylamino)methyl-benzamide]: the IC50 stood at 22 nM.

For the compound `CC(C)(C)C(=O)NCc1ccc(Cl)c(C(=O)Nc2ccc(Cl)c(C(=O)NC3CC3)c2)c1` [Example 20], the IC50 is roughly 3000 nM.

For `CC(C)(C)C(=O)NCc1ccc(Cl)c(C(=O)Nc2cc(F)c(F)c(C(=O)Nc3ccc(Br)cc3)c2)c1` [Example 54, N-[3,4-Difluoro-5-(4-bromophenyl)aminocarbonyl-phenyl]-2-chloro-5-(tert-butylcarbonylamino)methyl-benzamide], the IC50 was determined as 9 nM.

As for `CC(C)(C)C(=O)NCc1ccc(Cl)c(C(=O)Nc2ccc(OCC(F)F)c(C(=O)NCC3CC3(C)C)c2)c1` (stereo not shown) [Example 14], the IC50 was determined as 4 nM.

As to `CC1CCN(c2ccc(NC(=O)c3cc(CNC(=O)C(C)(C)C)ccc3Cl)cc2C(=O)Nc2ccc(Br)cc2)CC1` [Example 37, N-[4-(4-Methyl-piperidin-1-yl)-3-(4-bromophenyl)aminocarbonyl-phenyl]-2-chloro-5-(tert-butylcarbonylamino)methyl-benzamide], the IC50 worked out at 1 nM.

As for `CC(C)(C)C(=O)NCc1ccc(Cl)c(C(=O)Nc2ccc(OCC(F)F)c(C(=O)NCC#Cc3ccccc3)c2)c1` [Example 40], the 50% inhibitory concentration (IC50) was found to be 5 nM.

Consider `CC(C)(C)C(=O)NCc1ccc(Cl)c(C(=O)Nc2ccc(F)c(C(=O)Nc3ccc(Br)cc3)c2F)c1` [Example 39], for which the IC50 was 18 nM.

In the case of `COc1ccc(NC(=O)c2cc(CNC(=O)C(C)(C)C)ccc2Cl)cc1C(=O)N[C@H]1CC[C@H](C(C)(C)C)CC1` [Example 18], the IC50 turned out to be 2 nM.

`COc1ccc(NC(=O)c2cc(CNC(=O)C(C)(N)C(F)(F)F)ccc2Cl)cc1C(=O)Nc1ccc(Br)cc1` (stereo not shown) [Example 33]: the 50% inhibitory concentration (IC50) came to 2 nM.

In the case of `CC(C)(C)C(=O)NCc1ccc(Cl)c(C(=O)Nc2ccc(OCC(F)F)c(C(=O)NCC3CCC3)c2)c1` [Example 12], the half-maximal inhibitory concentration (IC50) turned out to be 3 nM.

With `COc1ccc(NC(=O)c2cc(CNC(=O)C(C)C(F)(F)F)ccc2Cl)cc1C(=O)Nc1ccc(Br)cc1` (stereo not shown) [Example 32], the IC50 stood at 2 nM.

Regarding `CNC(=O)c1cc(NC(=O)c2cc(CNC(=O)C3(C)CCCCC3)ccc2C)ccc1Cl` [Example 1, N-(4-Chloro-3-methylaminocarbonyl-phenyl)-2-methyl-5-[(1-methylcyclohexylcarbonylamino)methyl]-benzamide], the IC50 was roughly 1600 nM.

In the case of `COc1ccc(NC(=O)c2cc(CNC(=O)C3(C)CCCCC3)ccc2Cl)cc1C(=O)Nc1ccc(Br)cc1` [Example 27], the IC50 is 2 nM.

Regarding `COc1ccc(NC(=O)c2cc(CNC(=O)C(C)(C)C)ccc2Cl)cc1C(=O)NCc1ccccc1C(F)(F)F` [Example 16], the IC50 stood at 14 nM.

Consider `COc1ccc(NC(=O)c2cc(CNC(=O)c3c(F)cccc3Cl)ccc2Cl)cc1C(=O)Nc1ccc(Br)cc1` [Example 25], for which the concentration for half-maximal inhibition (IC50) turned out to be 1 nM.

In the case of `COc1ccc(NC(=O)c2cc(CNC(=O)C(C)(C)C(F)(F)F)ccc2Cl)cc1C(=O)Nc1ccc(Br)cc1` [Example 9, N-[4-Methoxy-3-(4-bromophenyl)aminocarbonyl-phenyl]-2-chloro-5-(2,2,2-trifluoro-1,1-dimethyl-ethyl)carbonylaminomethyl-benzamide], the IC50 amounted to 2 nM.

For `COc1ccc(NC(=O)c2cc(CNC(=O)C3(C(F)(F)F)CC3)ccc2Cl)cc1C(=O)Nc1ccc(Br)cc1` [Example 31], the IC50 amounted to 2 nM.

In the case of `COc1ccc(NC(=O)c2cc(CNC(=O)C(C)(F)F)ccc2Cl)cc1C(=O)Nc1ccc(Br)cc1` [Example 30], the concentration for half-maximal inhibition (IC50) was 1 nM.

Take `CC(C)(C)C(=O)NCc1ccc(Cl)c(C(=O)Nc2cnc(OCC(F)F)c(C(=O)Nc3ccc(Br)cc3)c2)c1` [Example 6, N-[2-(2,2-Difluoroethyl)oxy-3-(4-bromophenyl)aminocarbonyl-pyridin-5-yl]-2-chloro-5-(tert-butylcarbonylamino)methyl-benzamide]: the IC50 came out at 2 nM.

Consider `COc1ccc(NC(=O)c2cc(CNC(=O)c3c(F)cccc3C(F)(F)F)ccc2Cl)cc1C(=O)Nc1ccc(Br)cc1` [Example 26], for which the IC50 is 3 nM.

The next test has as its target T1, recombinant human mPGES-1. The test is described as follows: Assay B: mPGES-1 enzyme assay (modified). As to conditions: biological assay B (all other compounds); PGH2 final conc. 2 μM, HTRF; read-out: mPGES-1 inhibitory effect IC50. Format: biochemical. In a few lines: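 Microsomal recombinant human mPGES-1 preincubated 25 min at room temperature with compound in pH 7.4 phosphate buffer containing 2.5 mmol/L GSH; reaction started with 2 μM PGH2 (final), stopped with FeCl2 after 60 s. PGE2 quantified by HTRF against calibration curve; IC50 by nonlinear regression after background subtraction.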
As for `CC(C)(C(=O)NCc1ccc(Cl)c(C(=O)Nc2ccc(OCC(F)F)c(C(=O)NCC3CCCCC3)c2)c1)C(F)(F)F` [Example 129], the half-maximal inhibitory concentration (IC50) came out at 5 nM.
